{"source": "patent US20240182526A1", "about": "“COMPOSITIONS AND METHODS FOR MODULTING INFLAMMATORY AND DEGENERATIVE DISORDER” (University of Southern California, priority 2021, published 2024)", "key": {"gp130 receptor signaling": {"test_system": "gp130 receptor signaling", "details": "previous studies; cited from earlier work"}, "[1]": {"test_system": "adult and pig articular cartilage", "details": "cited from earlier work"}, "[2]": {"test_system": "rat medial meniscectomy and cartilage surface injury models", "details": "cited from earlier work"}, "pNF-κB p65": {"test_system": "pNF-κB p65", "test": "Western blot of pNF-κB p65 in pig articular chondrocytes", "format": "cell-based", "details": "for protein levels of pNF-κB p65 after OSM stimulation: pig articular chondrocytes, 24 hours", "procedure": "(§1) For standard western blot, treated and non-treated cells were lysed in RIPA Lysis and Extraction Buffer (Pierce, Rockford, IL) containing protease inhibitors (Pierce) followed by sonication with a 15-second pulse at a power output of 2 using the VirSonic 100 (SP Industries Company, Warminster, PA). Protein concentrations were determined by BCA protein assay (Pierce). Proteins were resolved with SDS-PAGE utilizing 4-15% Mini-PROTEAN TGX Precast Gels and transferred to Trans-Blot Turbo Transfer Packs with a 0.2-μm pore-size nitrocellulose membrane. The SDS-PAGE running buffer, 4-15% Mini-PROTEAN TGX Precast Gels, Trans-Blot Turbo Transfer Packs with a 0.2-μm pore-size nitrocellulose membrane was purchased from Biorad (Hercules, CA). Nitrocellulose membranes were blocked in 5% nonfat milk in 0.05% (v/v) Tween 20 (PBST) (Corning, Manassas, VA). Membranes were then incubated with primary antibodies p-gp130 Y814 (Evseenko lab, AbClonal), p-AKT (cat #4060, Cell Signaling), p-ERK 1/2 (cat #9106, Cell Signaling), p-Y416-SRC (cat #1246F, Novus Biologicals), p-gp130 (cat #1453R, Bioss USA) and p-NFκBp65 (cat #8242, Cell Signaling), and/or YAP1 (cat #4912, Cell Signaling). Histone H3 (cat #9515, Cell Signaling) was used as loading control. After washing in PBS containing 0.05% (v/v) Tween 20 (PBST), membranes were incubated with rabbit (cat #31460, Thermo Scientific) or mouse IgG-HRP (cat #31430, Thermo Scientific) secondary antibodies. After washing, membranes were developed with the Clarity Western ECL Blotting Substrate (Hercules, CA). Quantification of blots was performed using ImageJ 1.44 followed by Prism9 for analysis."}, "[3]": {"test_system": "ADAMTS4, ADAMTS5 and MMP13 transcription", "test": "qPCR of matrix-degrading genes in OSM-stimulated pig articular chondrocytes", "format": "cell-based", "details": "48 hours", "procedure": "(§2) Quantitative Real-Time PCR. Power SYBR Green (Applied Biosystems) RT-PCR amplification and detection was performed using an Applied Biosystems Step One Plus Real-Time PCR machine. The comparative Ct method for relative quantification (2-ΔΔCt) was used to quantitate gene expression. TBP (TATA-box binding protein) was used for gene normalization and expressed relative to a calibrator (sample in each set with lowest expression). Q-PCR for was conducted using the following primers: human: TBP forward, 5′ GATGGACGTTCGGTTTAGG 3′ (SEQ ID NO:28); TBP reverse, 5′ AGCAGCACAGTACGAGCAA 3′ (SEQ ID NO:29), MMP13 forward, 5′ […] 3′(SEQ ID NO:30); MMP13 reverse, 5′ GAACCCCGCATCTTGGCTT 3′ (SEQ ID NO:31), ADAMTS5 forward 5′ […] 3′ (SEQ ID NO:32); ADAMTS5 reverse, 5′ […] 3′ (SEQ ID NO:33), ADAMTS4 forward 5′ […] 3′ (SEQ ID NO:34); ADAMTS4 reverse, 5′ […] 3′ (SEQ ID NO:35), Collagen II forward, 5′ […] 3′ (SEQ ID NO:36); Collagen II reverse 5′ […] 3′ (SEQ ID NO:37); Aggrecan forward, 5′ AGGCAGCGTGATCCTTACC 3′ (SEQ ID NO:38); Aggrecan reverse, 5′ […] 3′ (SEQ ID NO:39). Cells were treated with 10 ng/mL OSM and/or with 5 μM SRC (SU6656) inhibitor, 10 ng/mL OSM and/or 50 ng/mL WT/F814 plasmids; 10 ng/mL OSM and/or 100 or 300 ug/mL of peptide QQpYF (Evseenko lab, Thermo Scientific); 10 uM R805 and/or 10 ng/mL OSM."}, "pSRC [4]": {"test_system": "pSRC", "test": "Western blot of pSRC in pig articular chondrocytes", "format": "cell-based", "details": "for protein levels of pSRC after OSM stimulation: pig articular chondrocytes, 4 and 24 hours", "procedure": "as §1\n(§3) The studies delineate that gp130 Y814 regulates SRC downstream signaling; since SRC is known to associate with gp130, it was hypothesized that gp130 and SRC are capable of physically interacting on Y814 and hindering this interaction will prevent SRC from signaling. In order to impede this interaction, experiments were performed using an innovative peptide library screen with short and overlapping peptides mimicking the motif of gp130 around Y814 that were individually tested for pSRC downregulation; these peptides ranged from 4-15 amino acids. The peptides contained a protein sequence stretch of consecutive amino acids surrounding gp130 Y814 residue. To test their efficacy, pig articular chondrocytes were stimulated with or without OSM in presence or absence of the peptides followed by co-immunoprecipitation to determine interaction and western blot detecting pSRC activity. […] Due to sequence specificity, the peptide is capable of discriminating among other gp130 regions serving as a competitive inhibitor."}, "pSRC [5]": {"target": "T1, pSRC (Homo sapiens, UniProt P12931)", "T1 construct": "from tissue; host or cells: human synovium", "test": "Western blot of pSRC in human synovium stimulated with OSM", "format": "cell-based", "details": "with or without OSM, 24 hours", "procedure": "as §1, with “After washing in PBS containing 0.05% (v/v) Tween 20 (PBST), membranes were incubated with rabbit (cat #31460, Thermo Scientific) or mouse IgG-HRP (cat #31430, Thermo Scientific) secondary antibodies. After washing, membranes were developed with the Clarity Western ECL Blotting Substrate (Hercules, CA).” left out"}, "pNF-kB p65": {"test_system": "pNF-kB p65", "test": "Western blot of pNF-kB p65 in human synovium stimulated with OSM", "format": "cell-based", "details": "with or without OSM, 24 hours", "procedure": "as §1, with “After washing in PBS containing 0.05% (v/v) Tween 20 (PBST), membranes were incubated with rabbit (cat #31460, Thermo Scientific) or mouse IgG-HRP (cat #31430, Thermo Scientific) secondary antibodies. After washing, membranes were developed with the Clarity Western ECL Blotting Substrate (Hercules, CA).” left out"}, "gp130 and pSRC": {"test_system": "gp130 and pSRC", "test": "Co-immunoprecipitation of complex formation between gp130 and pSRC in pig articular chondrocytes", "format": "cell-based", "details": "pig articular chondrocytes with or without OSM, 4 and 24 hours", "procedure": "IP Western, SDS-PAGE and Western blot analysis. For transfections of gp130 wild type (WT) (InVivoGen) and gp130 mutant plasmids (Thermo Scientific), cells were plated 24 h prior to transfection to produce monolayers that were 60% confluent and these were transfected by using Turbo DNAfectin 3000 (cat #G3000, Lambda Biotech) according to the manufacturer's protocol. 72h after transfection, cells were maintained in DMEM (10% FBS, 1% PSA) and were either left untreated or were stimulated with IL-6 (10 ng/mL) and/or OSM (10 ng/mL) for 24 h before cell harvest and protein extraction. For immunoprecipitation assays, cell lysates were incubated with Protein G Agarose (cat #20398, Pierce) and anti-Flag antibody (cat #2368, Cell Signaling) at 4° C. overnight. The immune complexes were sedimented, washed and separated by SDS-PAGE (see below) and further analyzed by Western blot using p-SRC (pY416-SRC) (cat #1246F, Novus Biologicals) or NEMO (cat #18474-1-AP, Proteintech) antibodies and normalized to gp130 (cat #bs-1459R, Bioss) or total SRC (cat #2123, Cell Signaling). For R805 treatment, the immune complexes were sedimented, washed and separated by SDS-PAGE and further analyzed by Western blot using OSMR (cat #ab85575, Abcam), LIFR (Santa cat #515337, Cruz Biotechnology) or p-SRC (pY416-SRC) (Novus Biologicals, cat #1246F). Histone H3 (cat #9715, Cell Signaling), gp130 (cat #bs-1459R, Bioss), total SRC (cat #2123, Cell Signaling) or Flag antibody (cat #14739, Cell Signaling) were used as loading controls.\nas §3"}, "[6]": {"test_system": "ADAMTS4/5, MMP13, COL2 and ACAN transcription", "test": "qPCR of catabolic and anabolic genes in human adult OA articular chondrocytes", "format": "cell-based", "details": "48 hours", "procedure": "as §2"}, "[7]": {"test_system": "cleaved ACAN and COL2 neoepitopes", "test": "Neoepitope assay on pig articular cartilage explants stimulated with OSM", "format": "cell-based", "details": "72 hours, normalized to wet weight", "procedure": "Neoepitope analysis. WT and F814 mouse articular cartilage explants were treated with or without OSM (10 ng/mL). Pig articular cartilage explants were stimulated with or without OSM (10 ng/mL) and treated with or without peptide QQpYF (100 μg/mL or 300 μg/mL). For R805 treatment, pig articular cartilage explants were stimulated with or without OSM (10 ng/mL) and treated with or without R805 (0.01, 0.1, 1 or 10 μM). The explants were then digested for 2 hr at 37° C. with 0.01 units chondroitinase ABC (Sigma Aldrich, St. Louis, MO). Samples were then dialyzed with ultrapure water for 24 hr at 4° C., freeze dried, dissolved in RIPA Lysis and Extraction Buffer (Pierce, IL) containing protease inhibitors (Pierce) followed by sonication. Proteins were separated and analyzed by Western blot using primary antibodies against aggrecan (cat #NB100-74350, Novus Biologicals,) and collagen II neoepitopes (cat #50-1035, Ibex). Wet weight of explants was used as loading control."}, "[8]": {"details": "pig articular chondrocytes treated with peptides for 24 hours, no OSM"}}, "note": "Entries after “also recorded” stand apart in the source; their conditions may differ. Where no end group is shown, it is not given here. [ ]: non-standard residue; d: D form. pY = N[C@@H](Cc1ccc(OP(=O)(O)O)cc1)C(=O)O"}
{"compound": "Brc1ccc(Nc2nc(-c3ccccc3)cs2)cc1", "note": "[RCGD 423]", "values": [{"measurement": "STAT3 signaling and downstream MYC", "setting": "gp130 receptor signaling", "value": "highly activate STAT3 signaling and its downstream target, proto-oncogene MYC"}, {"measurement": "activation of MAPK/ERK and NF-κB pathways", "setting": "gp130 receptor signaling", "value": "prevents activation of MAPK/ERK and NF-κB pathways"}, {"measurement": "articular cartilage degeneration", "setting": "[1]", "value": "protects adult and pig articular cartilage from degeneration"}, {"measurement": "cartilage regeneration", "setting": "[2]", "value": "promotes cartilage regeneration"}]}
{"compound": "CN(C)S(=O)(=O)c1ccc2c(c1)/C(=C/c1cc3c([nH]1)CCCC3)C(=O)N2", "note": "[SU6656, reference compound]", "values": [{"measurement": "protein levels of pNF-κB p65 after OSM stimulation", "setting": "pNF-κB p65", "value": "can be blocked by SRC inhibition"}, {"measurement": "OSM-induced transcription of matrix-degrading genes (ADAMTS4, ADAMTS5, MMP13), qPCR", "setting": "[3]", "value": "can be blocked by SRC inhibition"}]}
{"compound": "PRQQ[pY]FKQ [Peptide 5]", "values": [{"measurement": "endogenous protein levels of phosphorylated c-SRC (pSRC)", "setting": "pSRC [4]; [8]", "value": "inhibits endogenous SRC and NF-kB protein expression"}, {"measurement": "endogenous protein levels of NF-kB p65", "setting": "pNF-κB p65; [8]", "value": "inhibits endogenous SRC and NF-kB protein expression"}, {"measurement": "protein levels of pSRC", "setting": "pSRC [5]", "value": "inhibits SRC and NF-kB protein expression"}, {"measurement": "protein levels of pNF-kB p65", "setting": "pNF-kB p65", "value": "inhibits SRC and NF-kB protein expression"}]}
{"compound": "QQ(PY)F (QQYF) [Peptide P2A, 4 amino acid SRC-targeting interfering peptide, Gln-Gln-phosphoTyr-Phe]", "values": [{"measurement": "complex formation between gp130 and pSRC (gp130-SRC interaction)", "setting": "gp130 and pSRC", "value": "most efficacious at physically hindering gp130-SRC protein-protein interaction"}, {"measurement": "complex formation between gp130 and pSRC (gp130-SRC interaction)", "setting": "gp130 and pSRC; listed as QQ[pY]F", "value": "most efficacious at physically hindering gp130-SRC protein-protein interaction"}, {"measurement": "complex formation between gp130 and pSRC (gp130-SRC interaction)", "setting": "gp130 and pSRC; listed as QQpYF", "value": "prevents physical interaction of gp130 and SRC"}, {"measurement": "protein levels of pSRC after OSM stimulation", "setting": "pSRC [4]", "value": "decreasing SRC and NF-κB activation; also recorded: significant effect on decreasing SRC and NF-κB signaling; also recorded: inhibits SRC activity"}, {"measurement": "protein levels of pSRC after OSM stimulation", "setting": "pSRC [4]; listed as QQ[pY]F", "value": "decreasing pSRC activation"}, {"measurement": "protein levels of pSRC after OSM stimulation", "setting": "pSRC [4]; listed as QQpYF", "value": "inhibits activation of SRC downstream of gp130"}, {"measurement": "protein levels of pNF-κB p65 after OSM stimulation", "setting": "pNF-κB p65", "value": "decreasing SRC and NF-κB activation; also recorded: significant effect on decreasing SRC and NF-κB signaling"}, {"measurement": "biosynthesis (COL2 and ACAN transcription), qPCR", "setting": "[6]", "value": "promotes biosynthesis"}, {"measurement": "transcription of catabolic enzymes (ADAMTS4/5 and MMP13), qPCR", "setting": "[6]", "value": "decreased transcription of catabolic enzymes; also recorded: inhibits transcription of matrix degrading genes"}, {"measurement": "biosynthesis (COL2 and ACAN transcription), qPCR", "setting": "[6]; listed as QQpYF", "value": "increased"}, {"measurement": "transcription of catabolic enzymes (ADAMTS4/5 and MMP13), qPCR", "setting": "[6]; listed as QQpYF", "value": "markedly lower"}, {"measurement": "matrix degeneration: levels of cleaved ACAN and COL2 neoepitopes", "setting": "[7]", "value": "prevented matrix degeneration in pig cartilage explants; also recorded: sustained prevention of catabolism; also recorded: prevents degeneration in pig cartilage explants; also recorded: dose dependent"}, {"measurement": "matrix degeneration: levels of cleaved ACAN and COL2 neoepitopes", "setting": "[7]; listed as QQpYF", "value": "decrease of aggrecanase and collagenase activity"}]}
